Calls of active or inactive are those of the source. For most assays here, no stated cut-off is given here; in the data, actives have a measured Kd and inactives only a lower limit.
Experiments:
[1] = target: T1, Mitogen-activated protein kinase kinase kinase kinase 2 (Homo sapiens, UniProt Q12851)
T1 sequence (Q12851 whole entry): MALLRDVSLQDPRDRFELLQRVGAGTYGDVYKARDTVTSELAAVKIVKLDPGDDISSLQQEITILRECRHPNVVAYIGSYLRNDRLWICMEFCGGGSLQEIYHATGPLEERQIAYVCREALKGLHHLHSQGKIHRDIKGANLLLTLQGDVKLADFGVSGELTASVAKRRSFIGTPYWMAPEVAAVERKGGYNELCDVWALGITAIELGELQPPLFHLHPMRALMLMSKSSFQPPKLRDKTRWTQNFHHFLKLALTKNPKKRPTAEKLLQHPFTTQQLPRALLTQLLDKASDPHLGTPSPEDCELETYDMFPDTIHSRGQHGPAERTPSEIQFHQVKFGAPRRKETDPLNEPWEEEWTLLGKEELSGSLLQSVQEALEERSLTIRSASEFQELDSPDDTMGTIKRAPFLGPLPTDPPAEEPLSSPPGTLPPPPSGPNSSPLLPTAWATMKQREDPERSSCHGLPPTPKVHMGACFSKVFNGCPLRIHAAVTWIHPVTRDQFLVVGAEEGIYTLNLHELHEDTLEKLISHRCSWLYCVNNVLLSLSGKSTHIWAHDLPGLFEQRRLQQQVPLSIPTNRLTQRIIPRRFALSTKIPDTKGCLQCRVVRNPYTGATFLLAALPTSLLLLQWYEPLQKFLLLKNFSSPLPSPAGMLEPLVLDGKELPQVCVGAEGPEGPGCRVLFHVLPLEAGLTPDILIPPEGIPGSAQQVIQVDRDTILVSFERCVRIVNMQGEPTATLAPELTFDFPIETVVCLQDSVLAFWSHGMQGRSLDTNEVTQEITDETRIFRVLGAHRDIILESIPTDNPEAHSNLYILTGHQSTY

[2] = target: Cyclin-dependent kinase 6 (Homo sapiens, UniProt Q00534)
[3] = target: Cyclin-dependent kinase 13 (Homo sapiens, UniProt Q14004)
TGF-beta receptor type-2 = TGF-beta receptor type-2 (Homo sapiens, UniProt P37173)
[4] = target: Mitogen-activated protein kinase 1 (Homo sapiens, UniProt P28482)
[5] = target: T2, Serine/threonine-protein kinase NLK (Homo sapiens, UniProt Q9UBE8)
T2 sequence (Q9UBE8 whole entry): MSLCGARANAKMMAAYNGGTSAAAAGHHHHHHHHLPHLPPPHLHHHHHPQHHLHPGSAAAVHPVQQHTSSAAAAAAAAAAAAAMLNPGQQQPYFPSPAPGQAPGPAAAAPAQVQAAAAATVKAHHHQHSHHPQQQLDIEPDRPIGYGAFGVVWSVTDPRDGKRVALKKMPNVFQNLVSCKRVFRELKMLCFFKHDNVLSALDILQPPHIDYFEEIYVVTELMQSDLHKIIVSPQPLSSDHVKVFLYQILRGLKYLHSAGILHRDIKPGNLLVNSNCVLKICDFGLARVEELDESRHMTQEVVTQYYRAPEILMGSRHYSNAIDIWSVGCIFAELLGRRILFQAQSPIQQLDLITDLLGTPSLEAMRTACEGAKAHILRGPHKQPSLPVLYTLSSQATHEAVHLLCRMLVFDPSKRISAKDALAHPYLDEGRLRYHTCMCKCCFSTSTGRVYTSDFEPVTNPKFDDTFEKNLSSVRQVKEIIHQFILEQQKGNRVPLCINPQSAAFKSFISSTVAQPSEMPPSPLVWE

[6] = target: T3, Non-receptor tyrosine-protein kinase TNK1 (Homo sapiens, UniProt Q13470)
T3 sequence (Q13470 whole entry): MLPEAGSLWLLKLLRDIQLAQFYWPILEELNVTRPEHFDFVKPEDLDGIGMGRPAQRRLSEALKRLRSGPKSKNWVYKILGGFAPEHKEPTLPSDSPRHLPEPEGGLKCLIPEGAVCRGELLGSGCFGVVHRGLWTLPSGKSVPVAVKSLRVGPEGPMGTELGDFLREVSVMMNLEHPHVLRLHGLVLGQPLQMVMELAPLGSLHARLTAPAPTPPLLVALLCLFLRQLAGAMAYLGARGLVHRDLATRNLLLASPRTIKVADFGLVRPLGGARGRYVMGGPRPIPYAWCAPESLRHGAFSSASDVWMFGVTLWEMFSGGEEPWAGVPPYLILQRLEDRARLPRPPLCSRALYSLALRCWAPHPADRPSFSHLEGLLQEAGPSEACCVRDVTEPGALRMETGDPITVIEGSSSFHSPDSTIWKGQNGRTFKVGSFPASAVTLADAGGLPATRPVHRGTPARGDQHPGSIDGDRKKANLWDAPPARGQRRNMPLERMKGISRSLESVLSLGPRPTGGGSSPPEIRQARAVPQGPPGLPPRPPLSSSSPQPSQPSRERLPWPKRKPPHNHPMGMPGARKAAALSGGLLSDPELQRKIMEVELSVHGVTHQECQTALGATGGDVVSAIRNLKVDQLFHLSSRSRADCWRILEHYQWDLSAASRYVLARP

[7] = target: Ribosomal protein S6 kinase alpha-5 (Homo sapiens, UniProt O75582)
dCTP pyrophosphatase 1 = target: T4, dCTP pyrophosphatase 1 (Homo sapiens, UniProt Q9H773)
T4 sequence (Q9H773 whole entry): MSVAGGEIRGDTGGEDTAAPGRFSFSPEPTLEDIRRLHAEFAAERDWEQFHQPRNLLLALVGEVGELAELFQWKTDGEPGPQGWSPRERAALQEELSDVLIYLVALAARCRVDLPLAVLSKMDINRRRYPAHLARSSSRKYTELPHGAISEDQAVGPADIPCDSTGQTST

[8] = target: U5 small nuclear ribonucleoprotein 200 kDa helicase (Homo sapiens, UniProt O75643)
[9] = target: RAC-alpha serine/threonine-protein kinase (Homo sapiens, UniProt P31749)
Chain of RAC-alpha serine/threonine-protein kinase (P31749 whole entry): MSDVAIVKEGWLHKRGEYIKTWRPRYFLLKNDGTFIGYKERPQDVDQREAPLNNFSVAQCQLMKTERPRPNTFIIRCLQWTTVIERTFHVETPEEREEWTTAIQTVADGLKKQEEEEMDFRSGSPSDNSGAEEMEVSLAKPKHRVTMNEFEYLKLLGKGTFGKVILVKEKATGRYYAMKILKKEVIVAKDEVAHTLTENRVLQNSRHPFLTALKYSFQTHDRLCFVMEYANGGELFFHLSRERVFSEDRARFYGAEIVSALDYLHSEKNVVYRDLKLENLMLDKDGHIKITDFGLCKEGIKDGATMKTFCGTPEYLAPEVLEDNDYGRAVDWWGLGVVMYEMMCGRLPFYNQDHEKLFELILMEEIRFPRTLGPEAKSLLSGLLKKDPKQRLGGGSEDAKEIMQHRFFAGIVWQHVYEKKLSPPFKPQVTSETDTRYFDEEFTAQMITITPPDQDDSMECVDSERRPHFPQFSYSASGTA

Chain of Ribosomal protein S6 kinase alpha-5 (O75582 whole entry): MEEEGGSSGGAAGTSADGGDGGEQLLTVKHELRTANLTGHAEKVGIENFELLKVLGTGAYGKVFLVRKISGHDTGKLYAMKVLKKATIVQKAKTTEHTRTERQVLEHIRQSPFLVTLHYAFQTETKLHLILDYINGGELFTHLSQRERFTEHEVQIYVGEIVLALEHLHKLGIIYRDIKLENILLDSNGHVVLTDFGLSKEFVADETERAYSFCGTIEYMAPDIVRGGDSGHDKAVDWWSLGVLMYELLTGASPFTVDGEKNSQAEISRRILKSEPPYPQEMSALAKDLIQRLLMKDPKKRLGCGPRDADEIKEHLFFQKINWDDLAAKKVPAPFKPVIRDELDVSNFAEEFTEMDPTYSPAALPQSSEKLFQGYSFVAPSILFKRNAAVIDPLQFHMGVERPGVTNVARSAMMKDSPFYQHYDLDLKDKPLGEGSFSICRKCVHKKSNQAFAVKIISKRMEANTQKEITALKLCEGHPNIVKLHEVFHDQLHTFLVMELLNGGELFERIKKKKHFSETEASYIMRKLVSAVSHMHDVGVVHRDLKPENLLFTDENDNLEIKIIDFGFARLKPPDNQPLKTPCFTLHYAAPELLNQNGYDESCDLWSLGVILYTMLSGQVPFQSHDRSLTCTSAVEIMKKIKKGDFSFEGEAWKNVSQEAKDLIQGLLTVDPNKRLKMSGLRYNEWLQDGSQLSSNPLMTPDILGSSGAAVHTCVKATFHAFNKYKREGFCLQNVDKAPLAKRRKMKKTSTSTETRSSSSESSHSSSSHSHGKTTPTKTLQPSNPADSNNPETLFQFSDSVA
Chain of TGF-beta receptor type-2 (P37173 whole entry): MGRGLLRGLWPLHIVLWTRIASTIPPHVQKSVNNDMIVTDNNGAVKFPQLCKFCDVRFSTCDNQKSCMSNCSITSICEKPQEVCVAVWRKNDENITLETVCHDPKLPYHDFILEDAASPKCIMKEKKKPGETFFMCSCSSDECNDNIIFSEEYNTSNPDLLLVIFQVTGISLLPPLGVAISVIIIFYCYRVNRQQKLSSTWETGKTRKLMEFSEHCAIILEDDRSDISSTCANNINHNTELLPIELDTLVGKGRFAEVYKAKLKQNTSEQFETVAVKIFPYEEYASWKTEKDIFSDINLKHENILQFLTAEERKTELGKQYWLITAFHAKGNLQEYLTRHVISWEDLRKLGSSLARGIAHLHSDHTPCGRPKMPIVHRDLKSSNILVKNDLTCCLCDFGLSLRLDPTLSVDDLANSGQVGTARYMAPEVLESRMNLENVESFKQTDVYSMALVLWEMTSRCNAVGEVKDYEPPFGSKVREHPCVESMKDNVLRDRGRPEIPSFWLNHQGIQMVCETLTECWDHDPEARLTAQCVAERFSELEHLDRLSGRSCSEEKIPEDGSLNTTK
Chain of Cyclin-dependent kinase 13 (Q14004 whole entry): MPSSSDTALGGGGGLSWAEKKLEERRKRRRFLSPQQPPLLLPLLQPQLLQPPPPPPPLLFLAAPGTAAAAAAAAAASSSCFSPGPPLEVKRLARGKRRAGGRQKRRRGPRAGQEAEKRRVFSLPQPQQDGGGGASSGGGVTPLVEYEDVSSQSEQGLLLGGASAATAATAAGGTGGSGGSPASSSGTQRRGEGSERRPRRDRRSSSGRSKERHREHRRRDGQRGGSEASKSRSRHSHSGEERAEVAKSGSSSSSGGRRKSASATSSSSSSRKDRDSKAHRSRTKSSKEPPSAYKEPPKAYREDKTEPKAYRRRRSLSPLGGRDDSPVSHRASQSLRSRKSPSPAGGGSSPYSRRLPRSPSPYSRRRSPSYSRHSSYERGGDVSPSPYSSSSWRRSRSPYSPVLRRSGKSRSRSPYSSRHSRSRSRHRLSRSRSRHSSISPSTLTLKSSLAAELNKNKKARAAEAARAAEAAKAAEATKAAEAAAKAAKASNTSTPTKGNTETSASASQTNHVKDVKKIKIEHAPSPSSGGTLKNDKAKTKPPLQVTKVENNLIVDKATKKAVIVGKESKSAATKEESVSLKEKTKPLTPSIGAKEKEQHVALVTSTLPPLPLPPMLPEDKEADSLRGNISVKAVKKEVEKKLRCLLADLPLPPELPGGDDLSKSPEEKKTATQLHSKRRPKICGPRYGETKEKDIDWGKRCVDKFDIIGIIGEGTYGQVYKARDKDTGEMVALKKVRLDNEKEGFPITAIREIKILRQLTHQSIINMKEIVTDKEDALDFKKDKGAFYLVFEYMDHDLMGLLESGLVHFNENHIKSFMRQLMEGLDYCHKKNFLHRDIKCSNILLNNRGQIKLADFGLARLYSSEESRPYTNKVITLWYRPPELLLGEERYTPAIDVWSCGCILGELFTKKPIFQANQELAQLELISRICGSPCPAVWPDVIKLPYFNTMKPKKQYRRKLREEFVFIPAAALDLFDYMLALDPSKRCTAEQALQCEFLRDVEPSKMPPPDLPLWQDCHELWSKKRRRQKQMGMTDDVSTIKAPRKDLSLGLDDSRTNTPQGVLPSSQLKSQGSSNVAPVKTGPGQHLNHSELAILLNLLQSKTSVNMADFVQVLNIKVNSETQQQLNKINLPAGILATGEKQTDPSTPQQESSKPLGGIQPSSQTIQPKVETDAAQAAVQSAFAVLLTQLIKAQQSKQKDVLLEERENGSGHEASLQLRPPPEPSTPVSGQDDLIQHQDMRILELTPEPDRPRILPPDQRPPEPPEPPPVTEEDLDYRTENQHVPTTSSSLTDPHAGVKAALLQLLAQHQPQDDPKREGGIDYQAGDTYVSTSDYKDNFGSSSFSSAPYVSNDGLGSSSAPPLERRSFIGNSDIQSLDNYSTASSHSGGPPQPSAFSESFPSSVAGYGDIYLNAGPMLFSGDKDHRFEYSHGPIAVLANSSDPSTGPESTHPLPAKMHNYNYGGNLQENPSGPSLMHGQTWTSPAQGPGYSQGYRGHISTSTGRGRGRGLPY
Chain of Mitogen-activated protein kinase 1 (P28482 whole entry): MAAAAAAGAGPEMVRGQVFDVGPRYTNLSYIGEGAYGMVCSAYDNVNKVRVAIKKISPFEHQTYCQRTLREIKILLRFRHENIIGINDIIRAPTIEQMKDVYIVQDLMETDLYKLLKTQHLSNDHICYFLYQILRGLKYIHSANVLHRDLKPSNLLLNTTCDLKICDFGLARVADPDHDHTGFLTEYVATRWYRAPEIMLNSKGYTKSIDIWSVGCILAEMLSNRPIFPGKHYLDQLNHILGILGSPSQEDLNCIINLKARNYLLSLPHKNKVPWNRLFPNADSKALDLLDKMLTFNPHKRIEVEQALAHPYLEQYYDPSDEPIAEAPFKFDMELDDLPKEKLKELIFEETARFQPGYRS
Chain of Cyclin-dependent kinase 6 (Q00534 whole entry): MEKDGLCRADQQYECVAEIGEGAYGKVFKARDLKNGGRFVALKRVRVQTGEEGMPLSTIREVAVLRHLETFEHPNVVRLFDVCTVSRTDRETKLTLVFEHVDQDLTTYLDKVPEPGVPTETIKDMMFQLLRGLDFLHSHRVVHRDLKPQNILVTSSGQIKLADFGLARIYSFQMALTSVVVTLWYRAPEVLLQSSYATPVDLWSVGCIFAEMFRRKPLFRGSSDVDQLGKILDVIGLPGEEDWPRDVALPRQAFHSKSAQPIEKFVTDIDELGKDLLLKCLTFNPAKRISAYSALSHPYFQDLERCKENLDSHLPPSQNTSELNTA

Compound | Kd [1] | Kd [2] | Kd [3] | Kd (TGF-beta receptor type-2) | Kd [4] | Kd [5] | Kd [6] | Kd [7] | Kd (dCTP pyrophosphatase 1) | Kd [8] | Kd [9]
Cn1ncc(Cl)c1-c1cc(C(=O)N[C@H](CN)Cc2cccc(F)c2)sc1Cl [AFURESERTIB] | > 30 µM (inactive) | > 30 µM (inactive) | > 30 µM (inactive) | > 30 µM (inactive) | > 30 µM (inactive) | > 30 µM (inactive) | > 30 µM (inactive) | > 30 µM (inactive) | > 30 µM (inactive) | – | –
CCc1cnn2c(NCc3ccc[n+]([O-])c3)cc(N3CCCC[C@H]3CCO)nc12 [DINACICLIB] | – | – | 0.021 µM (active) | > 30 µM (inactive) | > 30 µM (inactive) | > 30 µM (inactive) | > 30 µM (inactive) | > 30 µM (inactive) | > 30 µM (inactive) | > 30 µM (inactive) | > 30 µM (inactive)
CCCS(=O)(=O)Nc1ccc(F)c(C(=O)c2c[nH]c3ncc(-c4ccc(Cl)cc4)cc23)c1F [VEMURAFENIB] | – | > 30 µM (inactive) | > 30 µM (inactive) | 3.4 µM (active) | > 30 µM (inactive) | > 30 µM (inactive) | > 30 µM (inactive) | > 30 µM (inactive) | > 30 µM (inactive) | > 30 µM (inactive) | > 30 µM (inactive)
C[C@@H](c1ccc2nccn2c1)n1nnc2ncc(-c3cnn(C)c3)nc21 [SAVOLITINIB] | > 30 µM (inactive) | > 30 µM (inactive) | > 30 µM (inactive) | > 30 µM (inactive) | > 30 µM (inactive) | > 30 µM (inactive) | > 30 µM (inactive) | > 30 µM (inactive) | > 30 µM (inactive) | – | > 30 µM (inactive)
CCn1c(=O)c(-c2cc[nH]n2)cc2c(C)nc(N)nc21 [VOXTALISIB] | > 30 µM (inactive) | > 30 µM (inactive) | > 30 µM (inactive) | – | > 30 µM (inactive) | > 30 µM (inactive) | > 30 µM (inactive) | > 30 µM (inactive) | > 30 µM (inactive) | > 30 µM (inactive) | > 30 µM (inactive)
CC[C@H](Nc1ncnc2[nH]cnc12)c1nc2cccc(F)c2c(=O)n1-c1ccccc1 [IDELALISIB] | > 30 µM (inactive) | > 30 µM (inactive) | > 30 µM (inactive) | > 30 µM (inactive) | > 30 µM (inactive) | > 30 µM (inactive) | > 30 µM (inactive) | > 30 µM (inactive) | > 30 µM (inactive) | – | > 30 µM (inactive)
Cc1cn(-c2cc(NC(=O)c3ccc(C)c(Nc4nccc(-c5cccnc5)n4)c3)cc(C(F)(F)F)c2)cn1 [NILOTINIB] | – | > 30 µM (inactive) | – | – | – | – | – | – | > 30 µM (inactive) | > 30 µM (inactive) | –
O=C1NC(=O)/C(=C/c2ccc3nccc(-c4ccncc4)c3c2)S1 [GSK-1059615] | > 30 µM (inactive) | > 30 µM (inactive) | > 30 µM (inactive) | > 30 µM (inactive) | > 30 µM (inactive) | – | > 30 µM (inactive) | > 30 µM (inactive) | > 30 µM (inactive) | > 30 µM (inactive) | > 30 µM (inactive)
CN1N=C(N)c2cn([C@@H]3O[C@H](COP(=O)(O)O)[C@@H](O)[C@H]3O)c3ncnc1c23 [TRICIRIBINE PHOSPHATE] | > 30 µM (inactive) | > 30 µM (inactive) | > 30 µM (inactive) | > 30 µM (inactive) | > 30 µM (inactive) | – | > 30 µM (inactive) | > 30 µM (inactive) | > 30 µM (inactive) | > 30 µM (inactive) | > 30 µM (inactive)
Cc1cc(Nc2cc(N3CCN(C)CC3)nc(/C=C/c3ccccc3)n2)n[nH]1 [ENMD-2076] | – | > 30 µM (inactive) | > 30 µM (inactive) | 2.35 µM (active) | – | > 30 µM (inactive) | – | > 30 µM (inactive) | > 30 µM (inactive) | > 30 µM (inactive) | –
OCCn1cc(-c2cnc3nnn(Cc4ccc5ncccc5c4)c3n2)cn1 [PF-04217903] | – | > 30 µM (inactive) | > 30 µM (inactive) | > 30 µM (inactive) | > 30 µM (inactive) | > 30 µM (inactive) | > 30 µM (inactive) | > 30 µM (inactive) | > 30 µM (inactive) | > 30 µM (inactive) | > 30 µM (inactive)
CC(C)Nc1cc(-c2c[nH]c(C(=O)N[C@H](CO)c3cccc(Cl)c3)c2)c(Cl)cn1 [ULIXERTINIB] | > 30 µM (inactive) | > 30 µM (inactive) | > 30 µM (inactive) | > 30 µM (inactive) | – | > 30 µM (inactive) | > 30 µM (inactive) | > 30 µM (inactive) | > 30 µM (inactive) | > 30 µM (inactive) | > 30 µM (inactive)
O=C(Nc1cccc(Cl)c1)Nc1ncc(CCNc2ncnc3ccsc23)s1 [SNS-314] | – | > 30 µM (inactive) | – | > 30 µM (inactive) | – | – | > 30 µM (inactive) | > 30 µM (inactive) | > 30 µM (inactive) | > 30 µM (inactive) | –
Cc1nc(N)sc1-c1ccnc(Nc2ccc(N3CCOCC3)cc2)n1 [CYC-116] | – | 1.72 µM (active) | – | 0.3 µM (active) | – | – | > 30 µM (inactive) | – | > 30 µM (inactive) | > 30 µM (inactive) | –
CCn1c(-c2nonc2N)nc2c(C#CC(C)(C)O)ncc(OC[C@H]3CCCNC3)c21 [GSK-690693] | – | > 30 µM (inactive) | – | – | – | – | – | – | 0.573 µM (active) | > 30 µM (inactive) | –
N[C@@H]1CCCN(c2c(/C=C3\SC(=O)NC3=O)cccc2-c2ccccc2)C1 | > 30 µM (inactive) | – | > 30 µM (inactive) | – | > 30 µM (inactive) | > 30 µM (inactive) | > 30 µM (inactive) | > 30 µM (inactive) | > 30 µM (inactive) | > 30 µM (inactive) | > 30 µM (inactive)
CN1CCN(c2ccc3nc(-c4c(N)c5c(F)cccc5[nH]c4=O)[nH]c3c2)CC1 [DOVITINIB] | – | 2.83 µM (active) | – | – | – | – | – | – | > 30 µM (inactive) | > 30 µM (inactive) | –
Nc1nc(N)c2nc(-c3cccc(O)c3)c(-c3cccc(O)c3)nc2n1 [TG100-115] | – | > 30 µM (inactive) | – | – | – | – | – | – | > 30 µM (inactive) | > 30 µM (inactive) | –

— ChEMBL document CHEMBL3991601, “The target landscape of clinical kinase drugs” (Science, 2017)
